Reference: the NIST ThermoML archive (doi:10.1021/je400134d)

Test: xn = mol fraction of the nth substance listed
Conditions: 100 kPa, Liquid; for speed of sound: Pulse-echo method; for mass density: Vibrating tube method

CNc1ccccc1 [N-methylaniline] + Cc1ccccc1
Conditions | mass density [kg/m3] | speed of sound [m/s]
293.15 K, x1 = 0.0541 | 873.9 | 1339.3
293.15 K, x1 = 0.0986 | 879.611 | 1350.5
293.15 K, x1 = 0.1502 | 886.145 | 1363.2
293.15 K, x1 = 0.1989 | 892.268 | 1375.1
293.15 K, x1 = 0.2473 | 898.297 | 1387
293.15 K, x1 = 0.2982 | 904.623 | 1399.7
293.15 K, x1 = 0.35 | 910.972 | 1412.6
293.15 K, x1 = 0.3898 | 915.862 | 1422.7
293.15 K, x1 = 0.446 | 922.654 | 1436.8
293.15 K, x1 = 0.4872 | 927.615 | 1447.3
293.15 K, x1 = 0.5426 | 934.227 | 1461.5
293.15 K, x1 = 0.5859 | 939.349 | 1472.7
293.15 K, x1 = 0.6441 | 946.179 | 1487.8
293.15 K, x1 = 0.6894 | 951.429 | 1499.7
293.15 K, x1 = 0.7385 | 957.096 | 1512.7
293.15 K, x1 = 0.7823 | 962.1 | 1524.3
293.15 K, x1 = 0.8377 | 968.392 | 1539.6
293.15 K, x1 = 0.8834 | 973.522 | 1551.3
293.15 K, x1 = 0.9299 | 978.698 | 1563.7
298.15 K, x1 = 0.0532 | 869.146 | 1317.9
298.15 K, x1 = 0.0998 | 875.098 | 1329.6
298.15 K, x1 = 0.1518 | 881.77 | 1342.7
298.15 K, x1 = 0.1906 | 886.675 | 1352.4
298.15 K, x1 = 0.2452 | 893.525 | 1366
298.15 K, x1 = 0.2887 | 898.955 | 1377
298.15 K, x1 = 0.3417 | 905.492 | 1390.3
298.15 K, x1 = 0.39 | 911.437 | 1402.7
298.15 K, x1 = 0.4434 | 917.945 | 1416.3
298.15 K, x1 = 0.49 | 923.58 | 1428.3
298.15 K, x1 = 0.5415 | 929.747 | 1441.7
298.15 K, x1 = 0.5792 | 934.236 | 1451.5
298.15 K, x1 = 0.6432 | 941.787 | 1468.4
298.15 K, x1 = 0.6868 | 946.88 | 1479.9
298.15 K, x1 = 0.7407 | 953.128 | 1494.3
298.15 K, x1 = 0.7823 | 957.907 | 1505.4
298.15 K, x1 = 0.8378 | 964.233 | 1520.4
298.15 K, x1 = 0.8844 | 969.501 | 1533
298.15 K, x1 = 0.934 | 975.057 | 1546.4
303.15 K, x1 = 0.053 | 864.574 | 1297.3
303.15 K, x1 = 0.0982 | 870.409 | 1308.8
303.15 K, x1 = 0.1501 | 877.091 | 1321.9
303.15 K, x1 = 0.1929 | 882.501 | 1332.7
303.15 K, x1 = 0.2456 | 889.168 | 1346.1
303.15 K, x1 = 0.2837 | 893.953 | 1355.7
303.15 K, x1 = 0.3444 | 901.518 | 1371.2
303.15 K, x1 = 0.3919 | 907.37 | 1383.4
303.15 K, x1 = 0.4478 | 914.21 | 1397.8
303.15 K, x1 = 0.4918 | 919.549 | 1409.3
303.15 K, x1 = 0.5391 | 925.243 | 1421.7
303.15 K, x1 = 0.5886 | 931.18 | 1434.7
303.15 K, x1 = 0.6395 | 937.212 | 1448.2
303.15 K, x1 = 0.6846 | 942.503 | 1460.2
303.15 K, x1 = 0.7398 | 948.933 | 1475
303.15 K, x1 = 0.7782 | 953.381 | 1485.3
303.15 K, x1 = 0.842 | 960.67 | 1502.3
303.15 K, x1 = 0.879 | 964.897 | 1512.7
303.15 K, x1 = 0.934 | 971.087 | 1527.6
